Laboratory results reported in patent US20200393397A1, “DEVICE FOR PERFORMING ELECTRICAL MEASUREMENTS” (Mimetas B.V., priority 2018, published 2020).

Tested on: Caco-2 tubules
Assay: TEER measurement of Caco-2 tubules in 2-lane Organoplate during staurosporine exposure
Type: cell-based, human
Method: Day 0: Collagen-1 gel was injected into one of the channels (gel channel) of a 2-lane Organoplate. After curing of the gel, Caco-2 cells (Sigma, human colon carcinoma cells) in culture medium were seeded in the other channel (perfusion channel) and allowed to proliferate. Culture medium was refreshed daily. […] Following this protocol, 40 chips, comprising a gel channel and a perfusion channel separated by a phaseguide, were seeded with Caco-2 cells, meaning that 40 tubules were grown simultaneously in a single 2-lane Organoplate. The method of culturing cells in this system is similar to the one described by Trietsch et al (Nature Communications, volume 8, Article number: 262(2017), doi:10.1038/s41467-017-00259-3).
A TEER measurement was performed daily at days 1 to 11. To this end, gold plated electrodes were inserted into the access wells of the gel and perfusion channel. For 5 to 10 seconds per chip, impedance spectra were recorded at frequencies ranging logarithmically from 10 Hz to 1 MHz.
At day 5, the 40 Caco-2 tubules were exposed to different concentrations of staurosporine (Sigma, S4400) for 12 hours.

CN[C@@H]1C[C@H]2O[C@@](C)([C@@H]1OC)n1c3ccccc3c3c4c(c5c6ccccc6n2c5c31)C(=O)NC4 [staurosporine]
effect on the TEER (day 5, concentration of 47 nM, 12 hours exposure (FIG. 8)): an effect on the TEER can be observed | effect on the TEER values (day 5, exposure to different concentrations for 12 hours (FIG. 8)): concentration dependent effect
